Measurements from the supplement of paper PMC13207355.
Structures can show the parent of a compound that is named as a salt.

Tests used:
Details in all cases: exposure time: 72 h
E28 [1] = patient-derived glioblastoma stem cells of classical subtype; experiment: surviving fraction (nuclei count normalised to DMSO); higher = more cells surviving (less toxic)
E57 [2] = patient-derived glioblastoma stem cells of mesenchymal subtype; experiment: as above
E31 [3] = patient-derived glioblastoma stem cells of proneural subtype; experiment: as above
E34 [4] = patient-derived glioblastoma stem cells of proneural subtype; experiment: as above
E13 [5] = patient-derived glioblastoma stem cells of classical subtype; experiment: as above
E21 [6] = patient-derived glioblastoma stem cells of mesenchymal subtype; experiment: as above
FT3469 [7] = normal neural stem cell line; experiment: as above
E28 [8] = experiment: phenotypic distance (Euclidean, principal components) from DMSO controls (arbitrary units); higher = stronger morphological change
E57 [9] = experiment: as above
E31 [10] = experiment: as above
E34 [11] = experiment: as above
E13 [12] = experiment: as above
E21 [13] = experiment: as above
FT3469 [14] = experiment: as above
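For phenotypic distance (Euclidean, principal components) from DMSO controls in this document: cell Painting imaging in 384-well plates, CellProfiler features reduced to at least 20 principal components, Euclidean distance versus same-plate DMSO vehicle wells (0.1% v/v), median over six images per well.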
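For surviving fraction (nuclei count normalised to DMSO) in this document: nuclei counted by high-content imaging of Hoechst-stained cells in laminin-coated 384-well plates, relative to 0.1% DMSO vehicle wells, with staurosporine as cell-death control.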

CCOC(=O)OC(C)OC(=O)[C@@H]1N2C(=O)[C@@H](NC(=O)[C@H](N)c3ccccc3)[C@H]2SC1(C)C (stereo partly drawn) [Bacampicillin hydrochloride]
Details | phenotypic distance | surviving fraction
E13 [5], 4.1 nM | – | 0.878
E13 [5], 12.3 nM | – | 0.951
E13 [5], 37 nM | – | 1.03
E13 [5], 111.1 nM | – | 0.813
E13 [5], 333.3 nM | – | 1
E13 [5], 1000 nM | – | 1.04
E13 [5], 3000 nM | – | 1.11
E13 [12], 4.1 nM | 0.65 | –
E13 [12], 12.3 nM | 1.12 | –
E13 [12], 37 nM | 0.975 | –
E13 [12], 111.1 nM | 0.635 | –
E13 [12], 333.3 nM | 0.439 | –
E13 [12], 1000 nM | 0.698 | –
E13 [12], 3000 nM | 0.628 | –
E21 [6], 4.1 nM | – | 0.982
E21 [6], 12.3 nM | – | 1.01
E21 [6], 37 nM | – | 1.09
E21 [6], 111.1 nM | – | 1.01
E21 [6], 333.3 nM | – | 1
E21 [6], 1000 nM | – | 0.914
E21 [6], 3000 nM | – | 1.06
E21 [13], 4.1 nM | 0.814 | –
E21 [13], 12.3 nM | 0.643 | –
E21 [13], 37 nM | 1.05 | –
E21 [13], 111.1 nM | 0.376 | –
E21 [13], 333.3 nM | 0.776 | –
E21 [13], 1000 nM | 0.7 | –
E21 [13], 3000 nM | 0.853 | –
E28 [1], 4.1 nM | – | 0.882
E28 [1], 12.3 nM | – | 0.993
E28 [1], 37 nM | – | 1.09
E28 [1], 111.1 nM | – | 1.19
E28 [1], 333.3 nM | – | 0.997
E28 [1], 1000 nM | – | 1.15
E28 [1], 3000 nM | – | 1.06
E28 [8], 4.1 nM | 0.82 | –
E28 [8], 12.3 nM | 0.789 | –
E28 [8], 37 nM | 1.1 | –
E28 [8], 111.1 nM | 0.421 | –
E28 [8], 333.3 nM | 0.781 | –
E28 [8], 1000 nM | 0.904 | –
E28 [8], 3000 nM | 0.881 | –
E31 [3], 4.1 nM | – | 0.986
E31 [3], 12.3 nM | – | 0.807
E31 [3], 37 nM | – | 0.871
E31 [3], 111.1 nM | – | 0.941
E31 [3], 333.3 nM | – | 1
E31 [3], 1000 nM | – | 0.965
E31 [3], 3000 nM | – | 1.1
E31 [10], 4.1 nM | 0.89 | –
E31 [10], 12.3 nM | 0.639 | –
E31 [10], 37 nM | 0.836 | –
E31 [10], 111.1 nM | 0.578 | –
E31 [10], 333.3 nM | 0.932 | –
E31 [10], 1000 nM | 0.697 | –
E31 [10], 3000 nM | 0.565 | –
E34 [4], 4.1 nM | – | 0.918
E34 [4], 12.3 nM | – | 1.02
E34 [4], 37 nM | – | 0.858
E34 [4], 111.1 nM | – | 0.934
E34 [4], 333.3 nM | – | 1.25
E34 [4], 1000 nM | – | 1.05
E34 [4], 3000 nM | – | 1.07
E34 [11], 4.1 nM | 0.569 | –
E34 [11], 12.3 nM | 0.614 | –
E34 [11], 37 nM | 0.651 | –
E34 [11], 111.1 nM | 0.507 | –
E34 [11], 333.3 nM | 1.28 | –
E34 [11], 1000 nM | 0.329 | –
E34 [11], 3000 nM | 1.06 | –
E57 [2], 4.1 nM | – | 0.987
E57 [2], 12.3 nM | – | 1.09
E57 [2], 37 nM | – | 0.961
E57 [2], 111.1 nM | – | 1.03
E57 [2], 333.3 nM | – | 0.926
E57 [2], 1000 nM | – | 0.97
E57 [2], 3000 nM | – | 0.956
E57 [9], 4.1 nM | 0.537 | –
E57 [9], 12.3 nM | 1.07 | –
E57 [9], 37 nM | 0.681 | –
E57 [9], 111.1 nM | 0.754 | –
E57 [9], 333.3 nM | 0.45 | –
E57 [9], 1000 nM | 0.576 | –
E57 [9], 3000 nM | 0.604 | –
FT3469 [7], 4.1 nM | – | 0.909
FT3469 [7], 12.3 nM | – | 0.875
FT3469 [7], 37 nM | – | 1.05
FT3469 [7], 111.1 nM | – | 0.978
FT3469 [7], 333.3 nM | – | 1.03
FT3469 [7], 1000 nM | – | 1.05
FT3469 [7], 3000 nM | – | 0.858
FT3469 [14], 4.1 nM | 0.697 | –
FT3469 [14], 12.3 nM | 0.387 | –
FT3469 [14], 37 nM | 0.735 | –
FT3469 [14], 111.1 nM | 0.551 | –
FT3469 [14], 333.3 nM | 0.433 | –
FT3469 [14], 1000 nM | 0.827 | –
FT3469 [14], 3000 nM | 0.96 | –
